Results: patent US10997871B2, “Contractile function measuring devices, systems, and methods of use thereof” (President and Fellows of Harvard College, priority 2014, dated 2021)

Assays:
[1] = tested on: cardiac tissue; conditions: cited from earlier work
[2] = tested on: cardiac tissue; assay: optogenetic muscle thin film contractile assay, frequency and dose-dependent response of drug-treated tissue; type: cell-based
Text: The system 300 can incorporate the system 290. The system 300 can be substantially similar in structure and function to the systems discussed above, except for the distinctions noted herein. Therefore, like reference numbers represent like structures. The system 300 can include a lens 152 disposed above the platform 222 and a C-mount lens 302 (e.g., a 1× lens) disposed above the lens 152. The system 300 can further include a sensor 304 (e.g., a 100 frames per second complementary metal oxide semiconductor (CMOS) camera, or the like) disposed above the lens 302. The components 152, 302, 304 can be aligned along the vertical axis 164.
The system 300 can include mirror 306 (e.g., a mirror with an oblique angle), a filter 308 (e.g., an LP filter, such as 776LP), and a light source 310 aligned along an axis 312 substantially perpendicular to the vertical axis 164. Light imparted from the light source 310 can be directed by the mirror 306 at the tissue structures 224. The light can further be directed at the sensor 304. The system 300 provides a combination of an optogenetic tissue structure and an optical mapping system setup, including bright field microscopy for optogenetic tissue structures with the sensor 304 and red light illumination from the filter 308.
124 muscle thin films were tested on 15 chips or platforms using three harvests. The error bar indicates a standard error of mean and the shading indicates approximately 95% confidence limits. […] Thus, the independently paced optogenetic muscle thin films enable higher throughput assays to investigate the frequency-dependent response.
As an example, quinidine and verapamil (both frequency-dependent) were tested for frequency and dose-dependent response in cardiac tissue. In particular, optogenetic muscle thin films in a contractile assay were used to recapitulate frequency and dose dependent mechanical responses of drug-treated tissue. In particular, FIGS. 61 and 62 show the pacing frequency, change in spontaneous beating rate frequency, change in twitch stress, and change in maximum Dt/dt for quinidine and verapamil.

Structure (SMILES) | effect on myocardial contractility ([1]; when given in therapeutic doses, general statement) | 1:1 coupling ([2]; at a low frequency with relatively low concentration, optical pacing) | inotropic effect (twitch stress, contractility) ([2]; comparison of verapamil with quinidine) | spontaneous beating rate ([2]; drug-treated cardiac tissue) | effect on calcium handling ([1]; general statement explaining the inotropic result)
C=C[C@H]1C[N@@]2CC[C@H]1C[C@@H]2[C@@H](O)c1ccnc2ccc(OC)cc12 [quinidine] | does not directly affect myocardial contractility | – | – | – | –
COc1ccc(CCN(C)CCCC(C#N)(c2ccc(OC)c(OC)c2)C(C)C)cc1OC (centres unmarked) [verapamil] | – | low | stronger negative inotropic effect than quinidine | increase | directly affects calcium handling
